Counter-ions that a name gives are not always drawn.
What was measured:
[1] = system: E. coli RNase P RNA, M1 RNA; assay: Inhibition of bacterial RNase P activity, IC50 determination (cleavage of pATSerUG by M1 RNA); assay type: biochemical; conditions: NI: No inhibition
[2] = system: Staphylococcus aureus (ATCC25923); assay: MIC, broth microdilution (CLSI), Staphylococcus aureus ATCC25923; conditions: Staphylococcus aureus, ATCC25923, read-out: S. aureus ATCC 25923 MIC
[3] = system: Escherichia coli (ATCC25922); assay: MIC, broth microdilution (CLSI), Escherichia coli; conditions: Escherichia coli, ATCC25922, read-out: E. coli ATCC 25922 MIC, Table XIII

| SMILES | IC50 [1] | MIC [2] | MIC [3] | IC50 ([1]; hydrochloride salt) | RNase P Inhibition IC50 [1] |
| --- | --- | --- | --- | --- | --- |
| COc1ccc2c(c1)c(C(CC(=O)NC1CCC(N)CC1)c1cccc(C)c1)cn2CC1CCCCC1.Cl [Compound 151, N-((1S,4S)-4-aminocyclohexyl)-3-(1-(cyclohexylmethyl)-5-methoxy-1H-indol-3-yl)-3-(m-tolyl)propanamide hydrochloride salt] | 45 µM | 16 mg/L | 128 mg/L | – | – |
| Cc1cccc(C(CC(=O)NC2CCC(N)CC2)c2cn(CC3CCCCC3)c3ccc(C#N)cc23)c1.Cl [Compound 236, N-((1S,4S)-4-aminocyclohexyl)-3-(5-cyano-1-(cyclohexylmethyl)-1H-indol-3-yl)-3-(m-tolyl)propanamide hydrochloride salt] | 20 µM | 9 mg/L | 68 mg/L | – | – |
| Cc1cccc(C(CC(=O)NC2CCC(N)CC2)c2cn(CC3CCCCC3)c3ccc(C4=CCNCC4)cc23)c1 [Compound 228, N-((1S,4S)-4-aminocyclohexyl)-3-(1-(cyclohexylmethyl)-5-(1,2,3,6-tetrahydropyridin-4-yl)-1H-indol-3-yl)-3-(m-tolyl)propanamide hydrochloride salt] | 57 µM | 10 mg/L | 40 mg/L | – | – |
| Cl.N[C@H]1CC[C@H](NC(=O)CCc2cc3ccccc3n2CC2CCCCC2)CC1 [Compound 276, N-((1R,4R)-4-aminocyclohexyl)-3-(1-(cyclohexylmethyl)-1H-indol-2-yl)propanamide hydrochloride salt] | 43 µM | 54 mg/L | 54 mg/L | – | – |
| Cl.N[C@H]1CC[C@H](NC(=O)CCc2cn(Cc3ccccc3)c3ccccc23)CC1 [Compound 100, N-((1R,4R)-4-aminocyclohexyl)-3-(1-benzyl-1H-indol-3-yl)propanamide hydrochloride salt] | 486 µM | 256 mg/L | > 512 mg/L | – | – |
| Cl.N[C@H]1CC[C@H](NC(=O)CC(c2cn(CC3CCCCC3)c3ccccc23)C2CCCCC2)CC1 (stereo partly drawn) [Compound 162, N-((1R,4R)-4-aminocyclohexyl)-3-cyclohexyl-3-(1-(cyclohexylmethyl)-1H-indol-3-yl)propanamide hydrochloride salt] | 9 µM | 4 mg/L | 32 mg/L | – | – |
| Cl.N[C@H]1CC[C@H](NC(=O)CCc2cn(CC3CCCCC3)c3ccc(Br)cc23)CC1 [Compound 156, N-((1R,4R)-4-aminocyclohexyl)-3-(5-bromo-1-(cyclohexylmethyl)-1H-indol-3-yl)propanamide hydrochloride salt] | 16 µM | 16 mg/L | 32 mg/L | – | – |
| COc1ccccc1-c1ccc2c(c1)c(C(CCN[C@H]1CC[C@H](N)CC1)c1cccc(C)c1)cn2CC1CCCCC1 (stereo partly drawn) [Compound 229, (1R,4R)-N1-(3-(1-(cyclohexylmethyl)-5-(2-methoxyphenyl)-1H-indol-3-yl)-3-(m-tolyl)propyl)cyclohexane-1,4-diamine hydrochloride salt] | 5.4 µM | 3 mg/L | 20 mg/L | – | – |
| Cc1cccc(C(CCNC2CCC(N)CC2)c2cn(CC3CCCCC3)c3ccc(Br)cc23)c1 [Compound 169, (1S,4S)-N1-(3-(5-bromo-1-(cyclohexylmethyl)-1H-indol-3-yl)-3-(m-tolyl)propyl)cyclohexane-1,4-diamine hydrochloride salt] | 21 µM | 2 mg/L | 5 mg/L | – | – |
| Cl.N[C@H]1CC[C@H](NC(=O)CC(c2cc(Cl)cc(Cl)c2)c2cn(CC3CCCCC3)c3ccccc23)CC1 (stereo partly drawn) [Compound 136, N-((1r,4r)-4-aminocyclohexyl)-3-(1-(cyclohexylmethyl)-1H-indol-3-yl)-3-(3,5-dichlorophenyl) propanamide hydrochloride salt] | 9 µM | 64 mg/L | > 512 mg/L | – | – |
| N[C@H]1CC[C@@H](NC(=O)c2coc(CN(CCc3c[nH]c4ccccc34)Cc3ccc(F)cc3)n2)CC1 [Compound 61, 2-(((2-(1H-indol-3-yl)ethyl)(4-fluorobenzyl)amino)methyl)-N-((1s,4s)-4-aminocyclohexyl) oxazole-4-carboxamide hydrochloride salt] | 182 µM | 63 mg/L | 251 mg/L | – | – |
| Cc1cccc(C(CC(=O)N[C@H]2CC[C@@H](N)CC2)c2cn(Cc3ccccc3)c3ncccc23)c1.Cl (stereo partly drawn) [Compound 41, N-((1s,4s)-4-aminocyclohexyl)-3-(1-benzyl-1H-pyrrolo[2,3-b]pyridin-3-yl)-3-(m-tolyl)propanamide hydrochloride salt] | 980 µM | 258 mg/L | > 512 mg/L | – | – |
| Cl.N[C@H]1CC[C@H](NC(=O)CC(c2ccc(F)c(F)c2)c2cn(CC3CCCCC3)c3ccccc23)CC1 (stereo partly drawn) [Compound 134, N-((1R,4R)-4-aminocyclohexyl)-3-(1-(cyclohexylmethyl)-1H-indol-3-yl)-3-(3,4-difluorophenyl)propanamide hydrochloride salt] | 19 µM | 4 mg/L | 256 mg/L | – | – |
| Cl.N[C@H]1CC[C@H](NC(=O)CC(c2cn(CC3CCCCC3)c3ccccc23)C2CCOCC2)CC1 (stereo partly drawn) [Compound 132, N-((1R,4R)-4-aminocyclohexyl)-3-(1-(cyclohexylmethyl)-1H-indol-3-yl)-3-(tetrahydro-2H-pyran-4-yl)propanamide hydrochloride salt] | 191 µM | 128 mg/L | > 512 mg/L | – | – |
| Cl.N[C@H]1CC[C@H](NC(=O)CC(c2cccnc2)c2cn(Cc3ccccc3)c3ccccc23)CC1 (stereo partly drawn) [Compound 99, N-((1R,4R)-4-aminocyclohexyl)-3-(1-benzyl-1H-indol-3-yl)-3-(pyridin-3-yl)propanamide hydrochloride salt] | 18 µM | 256 mg/L | > 512 mg/L | – | – |
| FC1(F)CCC(Cn2cc(CCCNC3CCNCC3)c3cc(Br)ccc32)CC1 [Compound 295, N-(3-(5-bromo-1-((4,4-difluorocyclohexyl)methyl)-1H-indol-3-yl)propyl)piperidin-4-amine hydrochloride salt] | 50 µM | 9 mg/L | 17 mg/L | – | – |

The next lines start with the values.

| IC50 [1] | MIC [2] | MIC [3] | IC50 ([1]; hydrochloride salt) | RNase P Inhibition IC50 [1] | SMILES |
| --- | --- | --- | --- | --- | --- |
| 13 µM | 10 mg/L | > 512 mg/L | – | – | Cc1cccc(C(CC(=O)NCC2CCC(N)CC2)c2cn(CC3CCCCC3)c3ccc(Br)cc23)c1.Cl [Compound 214, N-(((1R,4R)-4-aminocyclohexyl)methyl)-3-(5-bromo-1-(cyclohexylmethyl)-1H-indol-3-yl)-3-(m-tolyl)propanamide hydrochloride salt] |
| – | 2 mg/L | > 512 mg/L | 59 µM | – | Cc1cccc(C(CC(=O)NC2CCC(N)CC2)c2cn(CC3CCCCC3)c3cc(Br)ccc23)c1.Cl [Compound 175, N-((1S,4S)-4-aminocyclohexyl)-3-(6-bromo-1-(cyclohexylmethyl)-1H-indol-3-yl)-3-(m-tolyl)propanamide hydrochloride salt] |
| 16 µM | 8 mg/L | 64 mg/L | – | – | Cc1cccc(C(CC(=O)N[C@H]2CC[C@H](N)CC2)c2cn(CC3CCCCC3)c3ccccc23)c1.Cl (stereo partly drawn) [Compound 104, N-((1R,4R)-4-aminocyclohexyl)-3-(1-(cyclohexylmethyl)-1H-indol-3-yl)-3-(m-tolyl)propanamide hydrochloride salt] |
| 210 µM | 279 mg/L | > 512 mg/L | – | – | Cc1cccc(C(CC(=O)NC2CCC(N)CC2)c2cn(CC3CCNCC3)c3ccccc23)c1 [Compound 159, N-((1S,4S)-4-aminocyclohexyl)-3-(1-(piperidin-4-ylmethyl)-1H-indol-3-yl)-3-(m-tolyl)propanamide hydrochloride salt] |
| 103 µM | 16 mg/L | 131 mg/L | – | – | Cc1cccc(C(CC(=O)NCC2CNCCO2)c2cn(CC3CCCCC3)c3ccccc23)c1.Cl (stereo not drawn) [Compound 280, 3-(1-(cyclohexylmethyl)-1H-indol-3-yl)-N-(morpholin-2-ylmethyl)-3-(m-tolyl)propanamide hydrochloride salt] |
| 43 µM | 8 mg/L | 32 mg/L | – | – | Cl.N[C@H]1CC[C@H](NC(=O)CC(c2cccc(F)c2)c2cn(CC3CCCCC3)c3ccccc23)CC1 (stereo partly drawn) [Compound 137, N-((1R,4R)-4-aminocyclohexyl)-3-(1-(cyclohexylmethyl)-1H-indol-3-yl)-3-(3-fluorophenyl) propanamide hydrochloride salt] |
| – | > 512 mg/L | > 512 mg/L | – | Ni | Cc1cccc(C(CC(=O)NC2CCC(C(=O)NO)CC2)c2cn(CC3CCCCC3)c3ccccc23)c1 [Compound 247, (1S,4S)-4-(3-(1-(cyclohexylmethyl)-1H-indol-3-yl)-3-(m-tolyl)propanamido)-N-hydroxycyclohexane-1-carboxamide hydrochloride salt] |
| 15 µM | 9 mg/L | 18 mg/L | – | – | Cc1cccc(C(CCNC[C@H]2CC[C@H](CN)CC2)c2cn(CC3CCCCC3)c3ccccc23)c1 (stereo partly drawn) [Compound 177, N-(((1R,4R)-4-(aminomethyl)cyclohexyl)methyl)-3-(1-(cyclohexylmethyl)-1H-indol-3-yl)-3-(m-tolyl)propan-1-amine hydrochloride salt] |
| 149 µM | 128 mg/L | 256 mg/L | – | – | Cc1cccc(C(CC(=O)N[C@H]2CC[C@H](N)CC2)c2cn(CC3CC3)c3ccccc23)c1.Cl (stereo partly drawn) [Compound 124, N-((1R,4R)-4-aminocyclohexyl)-3-(1-(cyclopropylmethyl)-1H-indol-3-yl)-3-(m-tolyl)propanamide hydrochloride salt] |
| 23 µM | 19 mg/L | > 512 mg/L | – | – | Cc1cccc(C(CC(=O)N[C@H]2CC[C@H](CN)CC2)c2cn(CC3CCCCC3)c3ccc(Br)cc23)c1.Cl (stereo partly drawn) [Compound 206, N-((1R,4R)-4-(aminomethyl)cyclohexyl)-3-(5-bromo-1-(cyclohexylmethyl)-1H-indol-3-yl)-3-(m-tolyl)propanamide hydrochloride salt] |
